Measured values: patent publication US6589751B2, “Immonological detection of the homocystamide adduct and a thiolactone immunoassay for endogeneous homocysteine” (MCW Research Foundation, priority 1997, dated 2003)
“Also recorded” adds a separate entry of the source.

Experiments:
Type in all cases: binding, rabbit
[1] = system: purified polyclonal antibody directed against the homocystamide adduct; experiment: competition ELISA with purified polyclonal antibody (1:300), solid phase homocystamide-LDL adduct; details: for IC50 values, D,L- versus L-homocystamide-BSA compared: competitor 0-500 μg/ml, P>0.05, data not shown
Experimental: Solid phase ELISA techniques for antibody characterization. Solid phase indirect antibody capture techniques were used in all assays and have been described elsewhere (10, 34). Briefly, 96-well plates were initially coated with homocystamide-LDL adduct (100 μl, 10 μg/ml). For antibody titer determinations, the antisera were diluted at concentrations as indicated in the “Results” section. We defined antibody titers as the inverse of the greatest serum dilution in which a significant difference (p<0.05) between the percentage antibody bound from the antiserum and the pre-immune serum was observed. Immunoglobulin classes were determined using goat-anti-rabbit-μ-chain-specific, -heavy chain specific, and -heavy and light chain specific secondary antibodies that were linked to horseradish peroxidase. In order to determine antibody specificity, competition experiments were employed, using a limiting dilution (1:300) of purified antibody. Horseradish peroxidase-labeled goat-anti rabbit (heavy and light chain-specific) was used as a […], and the reaction was quenched by the addition of H2SO4 (100 μl, 1.8 M). The absorbance was measured at 450 nm in a 96-well plate reader.
Purification of antiserum. Polyclonal rabbit-anti-homocystamide antiserum was obtained following the 4th immunization of New Zealand White rabbits with homologous homocystamide-LDL adduct (0.5 mg in Freund's adjuvant) as described previously (34). A saturated solution of ammonium sulfate was added dropwise to the antiserum while stirring until the solution was 25% saturated with ammonium sulfate. This mixture was incubated overnight at 4° C. The mixture was centrifuged, and pellet was discarded. Ammonium sulfate was added to the supernatant while stirring until the final concentration of the solution was 50% ammonium sulfate. This mixture was incubated overnight at 4° C. The mixture was centrifuged, and the supernatant was discarded. The pellet was brought up in and dialyzed against Tris (10 mM, pH 7.5). […]

[2] = system: antiserum to homocystamide-LDL adduct; experiment: competition ELISA with antiserum (1:700), solid phase homocystamide-LDL adduct; details: competitor against solid phase homocystamide-LDL adduct
Experimental: Antiserum obtained as described in FIG. 1 was added to Millipore 96-well plates containing pre-adsorbed homocystamide-LDL adduct (100 μl, 10 μg/ml) at a limiting dilution (1:700) in the indicated concentrations of competitors (●, homocystamide-LDL adduct, ∘, native LDL, □, acetylated LDL, ▴, methylated LDL, ▪, methylated LDL treated with homocysteine thiolactone). Following a 12 hour incubation, antibody bound was quantified as described in FIG. 2. […] This experiment is representative of 3 independent experiments. (n=3 for each data point. Data points are the mean±SEM).
Antiserum obtained as described in FIG. 1 was added to Millipore 96-well plates containing pre-adsorbed homocystamide-LDL adduct (100 μl, 10 μg/ml) at a limiting dilution (1:700) in the indicated concentrations of competitors (●, Cu^2+-oxidized homocystamide-LDL adduct, ▪, Cu^2+-oxidized LDL, ▴, homocysteine). Following a 12 hour incubation, antibody bound was quantified as described in FIG. 1. […] This experiment is representative of 3 independent experiments. (n=3 for each data point. Data points are the mean±SEM).
Antiserum obtained as described in FIG. 1 was added to Millipore 96-well plates containing pre-adsorbed homocystamide-LDL adduct (100 μl, 10 μg/ml) at a limiting dilution (1:700) in the indicated concentrations of competitors (▴, ●, ▪, homocystamide-LDL, -HDL, and -lipoprotein-deficient serum proteins isolated from homocysteine thiolactone-treated plasma, and freshly drawn plasma without homocysteine thiolactone treatment, Δ). Following a 12 hour incubation, antibody bound following a 2-hour incubation, antibody bound was quantified as described in FIG. 1 using horseradish peroxidase-linked goat-anti-rabbit IgG (heavy and light chains). […] (n=4 for each data point. Data points are the mean±SEM). […] (This experiment is representative of 3 independent experiments. Data points are the mean of duplicate measurements.)
Briefly, 96-well plates were initially coated with homocystamide-LDL adduct (100 μl, 10 μg/ml). […] Immunoglobulin classes were determined using goat-anti-rabbit-μ-chain-specific, -heavy chain specific, and -heavy and light chain specific secondary antibodies that were linked to horseradish peroxidase. In order to determine antibody specificity, competition experiments were employed, using a limiting dilution (1:300) of purified antibody. Horseradish peroxidase-labeled goat-anti rabbit (heavy and light chain-specific) was used as a substrate, and the reaction was quenched by the addition of H2SO4 (100 μl, 1.8 M). The absorbance was measured at 450 nm in a 96-well plate reader.
Homocysteine thiolactone-treated LDL (10 μg/ml) was coated onto 96-well plates.

[3] = system: antiserum to homocystamide-LDL adduct; experiment: solid phase ELISA serum dilution curve on homocystamide adducts of other proteins; details: protein coated on solid phase
Experimental: Solid phase ELISA techniques for antibody characterization. Solid phase indirect antibody capture techniques were used in all assays and have been described elsewhere (10, 34). Briefly, 96-well plates were initially coated with homocystamide-LDL adduct (100 μl, 10 μg/ml). For antibody titer determinations, the antisera were diluted at concentrations as indicated in the “Results” section. We defined antibody titers as the inverse of the greatest serum dilution in which a significant difference (p<0.05) between the percentage antibody bound from the antiserum and the pre-immune serum was observed. Immunoglobulin classes were determined using goat-anti-rabbit-μ-chain-specific, -heavy chain specific, and -heavy and light chain specific secondary antibodies that were linked to horseradish peroxidase. In order to determine antibody specificity, competition experiments were employed, using a limiting dilution (1:300) of purified antibody. […] The absorbance was measured at 450 nm in a 96-well plate reader.
We sought to determine whether or not homocystamide adducts of other proteins could also be used in order to measure antibody titers. […] This curve resembled the serum dilution curve obtained in FIG. 4, as the antiserum recognized both homocystamide-BSA and homocystamide-hemoglogin adduct, indicated by antiserum dilution-dependent increase in the absorbance at 450 nm.

[4] = target: purified polyclonal anti-homocystamide adduct antibody; experiment: competition ELISA with purified polyclonal antibody (1:400), plates coated with homocystamide-BSA adduct
Experimental: Microtiter plate preparation. BSA (10 mg/ml in 1M borate, pH 8.4) was incubated for 6 hours at 25° C. in the presence of homocysteine thiolactone (50 mM). Following incubation, excess homocysteine thiolactone was removed by passing the sample down a column pre-equilibrated with NaCO3 (100 mM, pH 9.6). Homocystamide-BSA adduct was diluted to 5 μg/ml in NaCO3 (100 mM, pH 9.6), and 200 μl/well was added to polystyrene microtiter plates (11). These plates were incubated overnight at 4° C., rinsed in PBS, and either used immediately or covered and stored in PBS for future use.
Preparation of a standard curve. In order to prepare a standard curve of known homocysteine concentrations, the indicated concentrations of homocysteine were incubated in the presence of HCl (6N) and heated at 60° C. for 2 hours. […] These solutions were used in a competitive antibody binding assays in parallel with “test solutions” that were analyzed for homocysteine concentrations.
Immunoassay. […] The reactions were quenched after 30 minutes by the addition of H2SO4 (1.8N) and read at 450 nm. […]
Determination of antibody specificity. Antibody specificity for homocystamide-BSA adduct was determined. […] Results of antibody binding are expressed as B/B0, in which B is the % antibody binding in the presence of competitor, and B0 is the % antibody binding in the absence of competitor. […]

Molecule | IC50 values, D,L- versus L-homocystamide-BSA compared [1] | competition for binding to the antiserum (dose-dependent decrease in %B/B0) [2] | other results
L-homocystamide-BSA: BSA incubated with L-homocysteine thiolactone | not significantly different | – | –
D,L-homocystamide-BSA: BSA incubated with D,L Homocysteine thiolactone | not significantly different | – | –
N[C@@H](CCSSCC[C@H](N)C(=O)O)C(=O)O [homocystine] | – | neither BSA nor homocysteine disulfide (homocystine) were recognized; also recorded: Neither homocysteine, homocystine (homocysteine disulfide), nor Cu^2+-oxidized LDL competed for binding | competition / recognition by purified polyclonal antibody ([1]; purified polyclonal antibody 1:300, solid phase homocystamide-LDL): much less affinity than protein-homocystamide adducts; also recorded: recognized, however with much lower affinity
N[C@@H](CCS)C(=O)O [homocysteine] | – | Neither homocysteine, homocystine (homocysteine disulfide), nor Cu^2+-oxidized LDL competed for binding | competition for binding to the antiserum (dose-dependent decrease in %B/B0) ([2]; listed as free homocysteine): did not compete for binding
homocystamide-BSA adduct: BSA treated with homocysteine thiolactone; printed as BSA in the IC50 sentence of b114 | – | – | recognition by the antiserum (dilution-dependent increase in absorbance at 450 nm) [3]: recognized; IC50, inhibition of antibody binding (B/B0) [4]: approximately 200 μg/ml
